Measurements reported in ChEMBL document CHEMBL4732190, “Identification of Potent and Long-Acting Single-Chain Peptide Mimetics of Human Relaxin-2 for Cardiovascular Diseases” (J Med Chem, 2021).
*1 amine or outer side, *2 acyl side, *3 side chain or, on linkers, in order; H or OH if unused. Where a SMILES comes first, the peptide text is derived from it. [ ]: non-standard residue; d: D form. The star is where a group is joined. PEG11 = NCCOCCOCCOCCOCCOCCOCCOCCOCCOCCOCCOCCC(=O)O; X1 = CCCCCCCCCCCCCCCCC(=O)[C@H](CCC(N)=O)N*; β2hAla(2S) = C[C@@H](CN[*:1])C(=O)[*:2]

Key:
[1] = molecular target: T1, Relaxin receptor 1 (Homo sapiens) (UniProt Q9HBX9); assay: Agonist activity at RXFP1 endogenously expressed in human OVCAR-5 cells assessed as increase in IBMX-induced cAMP accumulation pretreated with IBMX for 40 mins followed by compound addition and measured after 30 mins by HTRF assay relative to relaxin; assay type: functional, cell-based; conditions: filed as agonist
T1 sequence (whole entry): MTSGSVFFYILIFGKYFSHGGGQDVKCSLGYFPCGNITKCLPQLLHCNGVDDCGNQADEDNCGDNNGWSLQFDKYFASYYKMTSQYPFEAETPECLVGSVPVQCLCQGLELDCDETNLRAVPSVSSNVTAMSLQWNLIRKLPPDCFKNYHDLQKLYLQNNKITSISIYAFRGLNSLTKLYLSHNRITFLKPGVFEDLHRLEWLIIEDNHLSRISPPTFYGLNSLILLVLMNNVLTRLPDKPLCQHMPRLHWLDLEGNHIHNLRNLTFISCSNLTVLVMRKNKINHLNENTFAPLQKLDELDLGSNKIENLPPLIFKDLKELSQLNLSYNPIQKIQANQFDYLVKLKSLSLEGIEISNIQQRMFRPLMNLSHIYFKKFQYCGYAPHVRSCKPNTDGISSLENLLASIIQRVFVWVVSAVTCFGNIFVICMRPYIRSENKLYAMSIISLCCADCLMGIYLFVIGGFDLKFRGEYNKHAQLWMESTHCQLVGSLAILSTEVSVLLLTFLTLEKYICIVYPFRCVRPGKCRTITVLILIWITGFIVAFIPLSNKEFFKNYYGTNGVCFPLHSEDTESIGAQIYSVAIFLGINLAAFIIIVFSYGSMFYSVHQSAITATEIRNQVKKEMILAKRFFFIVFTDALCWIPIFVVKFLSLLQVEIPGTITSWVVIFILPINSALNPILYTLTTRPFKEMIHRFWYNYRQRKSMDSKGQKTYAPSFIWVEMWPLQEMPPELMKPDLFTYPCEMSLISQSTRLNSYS

[2] = Half life in Sprague-Dawley rat at 1 mg/kg, iv measured upto 72 hrs by LC-HRMS analysis; assay type: ADME, organism-based; conditions: in vivo
[3] = molecular target: T1, Relaxin receptor 1 (Homo sapiens); assay: Selectivity ratio of EC50 for agonist activity at RXFP1 endogenously expressed in human OVCAR-5 cells in presence of 2 % HSA to EC50 for agonist activity at RXFP1 endogenously expressed in human OVCAR-5 cells in absence of HSA; assay type: cell-based
[4] = Stability in rat blood assessed as parent compound at 5 uM remaining after 4 hrs; assay type: ADME, tissue-based; conditions: read-out: Stabilty
[5] = molecular target: T2, Relaxin receptor 1 (Homo sapiens, UniProt Q9HBX9); assay: Agonist activity at RXFP1 endogenously expressed in human OVCAR-5 cells assessed as increase in IBMX-induced cAMP accumulation pretreated with IBMX for 40 mins followed by compound addition and measured after 30 mins by HTRF assay; assay type: functional, cell-based
T2 sequence (Q9HBX9 whole entry): T1 sequence (whole entry)

[6] = Stability in human blood assessed as parent compound at 5 uM remaining after 4 hrs; assay type: ADME, tissue-based; conditions: read-out: Stabilty
[7] = molecular target: T2, Relaxin receptor 1; assay: Agonist activity at RXFP1 endogenously expressed in human OVCAR-5 cells assessed as increase in IBMX-induced cAMP accumulation pretreated with IBMX for 40 mins followed by compound addition and measured after 30 mins in presence of 2 % HSA by HTRF assay; assay type: functional, cell-based
[8] = molecular target: T3, Relaxin receptor 1 (Rattus norvegicus) (UniProt Q6R6I6); assay: Selectivity index, ratio of EC50 for agonist activity at rat RXFP1 expressed in human […] cells in presence of RSA by HTRF assay to EC50 for EC50 for agonist activity at rat RXFP1 expressed in human […] cells in absence of RSA by HTRF assay; assay type: cell-based; conditions: HEK293, time 30.0 min
T3 sequence (whole entry): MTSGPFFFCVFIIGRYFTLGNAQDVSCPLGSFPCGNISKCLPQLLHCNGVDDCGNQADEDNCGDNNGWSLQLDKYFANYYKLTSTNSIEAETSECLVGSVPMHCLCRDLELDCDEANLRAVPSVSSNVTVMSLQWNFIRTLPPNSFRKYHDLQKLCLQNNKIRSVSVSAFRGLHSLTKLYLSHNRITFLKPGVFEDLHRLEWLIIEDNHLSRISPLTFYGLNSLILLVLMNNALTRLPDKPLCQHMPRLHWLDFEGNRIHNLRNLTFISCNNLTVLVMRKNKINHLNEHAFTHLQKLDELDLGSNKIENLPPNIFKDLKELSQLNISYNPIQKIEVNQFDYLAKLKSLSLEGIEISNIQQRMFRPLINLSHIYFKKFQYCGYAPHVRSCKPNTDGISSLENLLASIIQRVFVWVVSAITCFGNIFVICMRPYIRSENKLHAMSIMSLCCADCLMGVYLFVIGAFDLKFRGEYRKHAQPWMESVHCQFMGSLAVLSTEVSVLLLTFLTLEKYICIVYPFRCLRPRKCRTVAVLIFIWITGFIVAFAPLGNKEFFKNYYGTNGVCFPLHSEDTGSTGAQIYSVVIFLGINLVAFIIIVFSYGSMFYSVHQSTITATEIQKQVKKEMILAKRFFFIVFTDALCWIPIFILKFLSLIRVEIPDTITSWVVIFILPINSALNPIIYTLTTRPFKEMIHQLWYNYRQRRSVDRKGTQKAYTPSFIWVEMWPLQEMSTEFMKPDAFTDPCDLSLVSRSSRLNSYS

[9] = Positive chronotropic activity in pithed Sprague-Dawley rat assessed as increase in heart rate at 1000 mg/kg, iv administered as bolus dose measured after 60 mins post dose; assay type: ADME, organism-based; conditions: in vivo, 1 h
[10] = Positive chronotropic activity in pithed Sprague-Dawley rat assessed as increase in heart rate at 20 to 1000 mg/kg, iv administered as bolus dose measured after 60 mins post dose; assay type: ADME, organism-based; conditions: in vivo, 1 h, dose 20-1000 mg/kg
[11] = molecular target: T1, Relaxin receptor 1 (Homo sapiens); assay: Agonist activity at RXFP1 endogenously expressed in human OVCAR-5 cells assessed as increase in IBMX-induced cAMP accumulation pretreated with IBMX for 40 mins followed by compound addition and measured after 30 mins in presence of 2 % HSA by HTRF assay relative to control; assay type: functional, cell-based; conditions: filed as agonist
[12] = molecular target: T3, Relaxin receptor 1 (Rattus norvegicus); assay: Agonist activity at rat RXFP1 expressed in human […] cells assessed as increase in IBMX-induced cAMP accumulation pretreated with IBMX for 40 mins followed by compound addition and measured after 30 mins by HTRF assay relative to control; assay type: cell-based; conditions: HEK293, filed as agonist
[13] = molecular target: T4, Relaxin receptor 1 (Rattus norvegicus, UniProt Q6R6I6); assay: Agonist activity at rat RXFP1 expressed in human […] cells assessed as increase in IBMX-induced cAMP accumulation pretreated with IBMX for 40 mins followed by compound addition and measured after 30 mins by HTRF assay; assay type: cell-based, HEK293
T4 sequence (Q6R6I6 whole entry): T3 sequence (whole entry)

Emax [1] [%]	half-life [2] [h]	Ratio EC50 [3]	remaining at 4 h, 5 µM [4] [%]	EC50 [5] [nM]	remaining at 4 h, 5 µM [6] [%]	EC50 [7] [nM]	Ratio EC50 [8]	Emax [11] [%]	Emax [12] [%]	EC50 [13] [nM]	Structure (SMILES)	Emin [9] [%]	Activity [10]
97	4.3	> 170	93	17.6	91	> 3000	–	–	–	–	CCCCCCCCCCCCCCCCC(=O)[C@H](CCC(N)=O)NC(=O)[C@H](CCC(=O)O)NC(=O)[C@H](CCC(=O)O)NC(=O)[C@H](CCCCN)NC(=O)[C@H](CCCCN)NC(=O)[C@H](CCCNC(=N)N)NC(=O)[C@@H](C)CNC(=O)[C@H](CO)NC(=O)[C@H](Cc1c[nH]c2ccccc12)NC(=O)[C@@H](NC(=O)[C@H](CO)NC(=O)[C@H](CCSC)NC(=O)CNC(=O)[C@H](CCC(=O)O)NC(=O)[C@@H](C)CNC(=O)[C@@H](C)CNC(=O)[C@@H](NC(=O)[C@H](CCC(N)=O)NC(=O)[C@H](C)NC(=O)[C@H](CCCNC(=N)N)NC(=O)[C@@H](NC(=O)[C@H](CCCCN)NC(=O)[C@H](CCC(=O)O)NC(=O)[C@H](CCCNC(=N)N)NC(=O)[C@H](CCC(=O)O)NC(=O)CNC(=O)[C@H](CCC(=O)O)NC(=O)[C@H](CC(C)C)NC(C)=O)C(C)C)[C@@H](C)CC)[C@@H](C)O (Ac-LEGEREKVRAQI[β2hAla(2S)][β2hAla(2S)]EGMSTWS[β2hAla(2S)]RKKEE-X1)	–	–
88	8.9	75	–	3.6	–	270	33	88	79	0.9	CCCCCCCCCCCCCCCCC(=O)[C@H](CCC(N)=O)NC(=O)[C@H](CCC(=O)O)NC(=O)[C@H](CCC(=O)O)NC(=O)[C@H](CCCCN)NC(=O)CCOCCOCCOCCOCCOCCOCCOCCOCCOCCOCCOCCNC(=O)[C@H](CCCCN)NC(=O)[C@H](CCCNC(=N)N)NC(=O)[C@@H](C)CNC(=O)[C@H](CO)NC(=O)[C@H](Cc1c[nH]c2ccccc12)NC(=O)[C@@H](NC(=O)[C@H](CO)NC(=O)[C@H](CCSC)NC(=O)CNC(=O)[C@H](CCC(=O)O)NC(=O)[C@@H](C)CNC(=O)[C@@H](C)CNC(=O)[C@@H](NC(=O)[C@H](CCC(N)=O)NC(=O)[C@H](C)NC(=O)[C@H](CCCNC(=N)N)NC(=O)[C@@H](NC(=O)[C@H](CCCCN)NC(=O)[C@H](CCC(=O)O)NC(=O)[C@H](CCCNC(=N)N)NC(=O)[C@H](CCC(=O)O)NC(=O)CNC(=O)[C@H](CCC(=O)O)NC(=O)[C@H](CC(C)C)NC(C)=O)C(C)C)[C@@H](C)CC)[C@@H](C)O (Ac-LEGEREKVRAQI[β2hAla(2S)][β2hAla(2S)]EGMSTWS[β2hAla(2S)]RK[PEG11]KEE-X1)	30	Dose-dependent effect
